The record followed here is patent publication US20070037872A1, “Inducing peripheral blood vesel vasodilation” (Mars, Incorporated, priority 2005, published 2007).

This experiment relates to peripheral microvascular endothelial function. The experiment is described as follows: PAT with reactive hyperemia after L-NMMA infusion followed by cocoa beverage. Format: in vivo, human. The method, then: Peripheral arterial tonometry (PAT) measurements were taken of three volunteers according to the following study. This is a non-invasive technique for examining peripheral microvascular endothelial function. Microvascular endothelial function is assessed by the direct measurement of changes in digital (finger) pulse volume following reactive hyperemia.
On study days, the subjects reported in a fasted state between 7:30 and 9:00 a.m. Body weight, resting heart rate, and blood pressure were all re-measured. […] Subjects then lied down on their backs to acclimatize to ambient conditions. After 30 minutes, a non-invasive, sterile, single-use finger probe was fitted to a finger and a baseline PAT reading was taken and recorded for 10 minutes. The subjects were then subjected to a reactive hyperemia procedure (“RH”) which consisted of a period of blood flow occlusion to the measurement arm using an upper arm blood pressure cuff, pressurized to achieve a supra-systolic level (equivalent to about 60 mm mercury above systolic blood pressure) for 5 minutes. Then the cuff was released and the data recorded for another five minutes. Following this first reading, subjects drank 3 bottles of Cocoa Drink A (total 483 mg). Over the next six hours, the PAT response was monitored at two, four and six hours.
The infusion of L-NMMA occurred over 30 minutes (1mg/kg/min for the first 3 minutes and then 0.2 mg/kg/min for the next 27 minutes). Following infusion of the L-NMMA, 3 bottles of the beverage were fed (483 mg) per subject. Readings were done for baseline, after infusion of L-NMMA and after consumption of cocoa.
Referring to Table 1, RH indicates PAT value following a reactive hyperemia procedure; “baseline” refers to baseline reading prior to occlusion period.
The data supports an NO-independent mechanism of action of the compounds described herein. […] This indicates the blood flow was affected via an NO-independent mechanism. Peripheral blood flow/vasodilation is a function of both NO and NO-independent vasodilators. The endothelium derived NO is one of the most important mediators of vascular tone; however, NO is not the only compound regulating vascular tone. As such, being able to operate via NO-independent mechanisms means that the compound of the invention can exert important vasodilatory effects on the microvasculature which are independent of an intact endothelium. If the endothelium is compromised in any way and simply cannot produce enough NO, the fact that the compounds of the invention act in an endothelium independent fashion offers greater therapeutic benefits, which was previously unexpected.

The mark [1] stands for this setting: Subject #1, Day 11, after 30 min intravenous infusion of L-NMMA.
Setting [2] is: Subject #5, Day 10, after 30 min intravenous infusion of L-NMMA.
Setting [3] is: Subject #6, Day 11, after 30 min intravenous infusion of L-NMMA.

As for `CNC(=N)NCCC[C@H](N)C(=O)O` [LNMMA], the “Baseline (baseline PAT reading prior to occlusion period)” value runs as follows: under setting [1], 616; under setting [2], 689; under setting [3], 597. The “RH (PAT value following a reactive hyperemia procedure)” value is, setting by setting: under setting [1], 1.61; under setting [2], 1.42; under setting [3], 1.75. Besides, the “change in the RH value” (all three subjects, after L-NMMA infusion) is “dramatic reduction”.
